This note sets out measurements from patent US9221814B2, “Heterocyclic guanidine F1F0-atpase inhibitors and therapeutic uses thereof” (Lycera Corporation, priority 2012, dated 2015).

SMILES strings stand for the structures. pEC50, pIC50: −log10 of the molar value.

One assay deals with T1, F1F0-ATPase (Bos taurus, UniProt P13621).
T1 construct: from tissue
Nature of the assay: Inhibition of F1F0-ATPase activity in synthesizing ATP (ATP synthesis inhibition). It is filed as biochemical. The settings on record: detection limit IC50=16 μM, read-out: ATP Syn IC50. On the procedure: (§1) Exemplary compounds described in above Examples were tested for activity against F1F0-ATPase by measuring the ability of the compounds to inhibit ATP synthesis. In addition, the compounds were assessed for cytotoxicity in Ramos cells. Inhibition of F1F0-ATPase activity in synthesizing ATP and cytotoxicity in Ramos cells were measured according to the procedures described in K. M. Johnson et al. Chemistry & Biology 2005, 12, 485-496.

In the next assay the test system is Ramos cells. As to the kind of experiment: Cytotoxicity in Ramos cells. It is filed as cell-based. To be noted: detection limit EC50=16 μM, read-out: Ramos Cell EC50. On the procedure: as §1

As for `Cc1cc(C(=O)/N=C(/NCC(C)C)Nc2cc(-c3cc(F)cc(F)c3)n[nH]2)n(C)n1` [Compound A-83], the negative logarithm of the IC50 (pIC50) (commonly the IC50 on a negative log10 scale, so that one unit is a factor of ten) on F1F0-ATPase is greater than 5.30. In addition, the pEC50 (in general, the EC50 on a negative log10 scale, so that one unit is a factor of ten) in the assay with Ramos cells was 4.80 to 5.30.
Regarding `CC(C)CN/C(=N/C(=O)c1cc(C(C)(C)C)nn1C)Nc1cc(-c2ccc(Cl)cc2)n[nH]1` [Compound A-73], the pIC50 on F1F0-ATPase is greater than 5.30. Also, the negative logarithm of the EC50 (pEC50) with Ramos cells is greater than 5.30.
For `Cn1cc(C(=O)/N=C(/Nc2ccc(C(C)(C)C)cc2)Nc2cc(-c3ccc(O)cc3F)n[nH]2)c(C(F)(F)F)n1` [Compound A-151], the pIC50 at F1F0-ATPase is greater than 5.30. Besides, in the assay on Ramos cells, the pEC50 was greater than 5.30.
Consider `CC(C)N/C(=N/C(=O)c1cn(C)nc1C(F)(F)F)Nc1cc(-c2ccc(O)c(F)c2)n[nH]1` [Compound A-152], for which the negative-log IC50 (pIC50) at F1F0-ATPase was 4.80 to 5.30. For the same compound, the pEC50 with Ramos cells is 4.80 to 5.30.
In the case of `COc1ccc(-c2cc(N/C(=N\C(=O)c3cn(C)nc3C(F)(F)F)Nc3ccc(F)cc3Cl)[nH]n2)cc1F` [Compound A-147], on F1F0-ATPase, the negative logarithm of the IC50 (pIC50) is greater than 5.30. Further, the pEC50 in the assay with Ramos cells is less than 4.80.
As to `Cc1ccc(Cl)cc1N/C(=N/C(=O)c1cn(C)nc1C(F)(F)F)Nc1cc(-c2ccc(O)c(F)c2)n[nH]1` [Compound A-186], the negative-log IC50 (pIC50) on F1F0-ATPase was 4.80 to 5.30. The negative logarithm of the EC50 (pEC50) in the assay on Ramos cells was less than 4.80.
